Test results as given in publication PMC7411887, “New Paracyclophanylthiazoles with Anti-Leukemia Activity: Design, Synthesis, Molecular Docking, and Mechanistic Studies” (Molecules, 2020).
Read-outs that look alike come from different tables or passages of the source.

How the values were obtained:
NCI-H322M = assay: NCI five-dose assay; type: cell-based, human; conditions: Non-Small-Cell Lung Cancer NCI-H322M
MOLT-4 = assay: NCI five-dose assay; type: cell-based; conditions: Leukemia MOLT-4
M14 = assay: NCI five-dose assay; type: cell-based; conditions: Homo sapiens, Melanoma M14
SF-268 = assay: NCI five-dose assay; type: cell-based; conditions: Homo sapiens, CNS Cancer SF-268
NCI/ADR-RES = assay: NCI five-dose assay; type: cell-based; conditions: Homo sapiens, Ovarian Cancer NCI/ADR-RES
PC-3 = assay: NCI five-dose assay; type: cell-based; conditions: Prostate Cancer PC-3
SF-539 = assay: NCI five-dose assay; type: cell-based; conditions: CNS Cancer SF-539
T-47D = assay: NCI five-dose assay; type: cell-based; conditions: Breast Cancer T-47D
OVCAR-4 = assay: NCI five-dose assay; type: cell-based, human; conditions: Ovarian Cancer OVCAR-4
[1] = test system: 60 human tumor cell lines; assay: NCI five-dose assay, full panel; type: cell-based; conditions: for GI50: Homo sapiens
Protocol: The outcomes were used to form log concentration vs. percentage growth inhibition curves and three response parameters (GI50, total growth inhibition (TGI), and LC50) were calculated for each cell line (Table 2).
The criterion for selectivity of a compound depends upon the ratio obtained by dividing the full-panel MID (the average sensitivity of all cell lines toward the test agent) (μM) by the individual subpanel MIDs (μM).

EKVX = assay: NCI five-dose assay; type: cell-based; conditions: Non-Small-Cell Lung Cancer EKVX
MDA-MB-231/ATCC = assay: NCI five-dose assay; type: cell-based; conditions: Breast Cancer MDA-MB-231/ATCC
786-0 = assay: NCI five-dose assay; type: cell-based; conditions: Renal Cancer 786-0
TK-10 = assay: NCI five-dose assay; type: cell-based, human; conditions: Renal Cancer TK-10
CCRF-CEM = assay: NCI five-dose assay; type: cell-based; conditions: Homo sapiens, Leukemia CCRF-CEM
COLO 205 = assay: NCI five-dose assay; type: cell-based, human; conditions: Colon Cancer COLO 205
RXF393 = assay: NCI five-dose assay; type: cell-based; conditions: Renal Cancer RXF393
[2] = Homo sapiens, read-out: GI50 Concentration/Cell Line
[3] = read-out: GI50 Concentration/Cell Line
[4] = Homo sapiens, read-out: LC50 (the source's name)

## COC(=O)C=C1SC(=NNC(=O)c2cc3ccc2CCc2ccc(cc2)CC3)N(c2ccccc2)C1=O [Compound 3a]
NCI-H322M; [2]
  GI50: 2.02 µM
NCI-H322M
  TGI Concentration/Cell Line: 4.75 µM
MOLT-4; Homo sapiens
  LC50 (concentration killing 50% of cells): > 100 µM
MOLT-4; [2]
  GI50: 3.12 µM
MOLT-4
  TGI Concentration/Cell Line: >100 µM
M14
  LC50: > 100 µM
M14; [3]
  GI50: 3.27 µM
SF-268; [3]
  GI50: 3.09 µM
SF-268; read-out: LC50 (the source's name)
  CC50: > 100 µM
NCI/ADR-RES
  LC50: > 100 µM
NCI/ADR-RES; [3]
  GI50: 2.92 µM
PC-3; Homo sapiens
  LC50: 7.7 µM
PC-3; [2]
  GI50: 1.71 µM
PC-3
  TGI Concentration/Cell Line: 3.63 µM
SF-539
  TGI Concentration/Cell Line: 3.32 µM
SF-539; [2]
  GI50: 1.79 µM
SF-539; [4]
  CC50: 6.18 µM
T-47D
  TGI Concentration/Cell Line: 3.65 µM
T-47D; Homo sapiens, T47D, read-out: GI50 Concentration/Cell Line
  GI50: 1.54 µM
T-47D; Homo sapiens, T47D, read-out: LC50 (the source's name)
  CC50: 8.68 µM
OVCAR-4; [2]
  GI50: 3.17 µM
OVCAR-4
  TGI Concentration/Cell Line: 9.88 µM
[1]; full panel, read-out: MID^a (GI50, average sensitivity of all cell lines)
  GI50: 2.38 µM
[1]; nine subpanels, read-out: GI50 range over tested cell lines
  GI50: 1.52 to 7.56 µM
[1]; full panel
  MID^c (TGI, average sensitivity of all cell lines): 21.1 µM
EKVX; [2]
  GI50: 1.91 µM
EKVX; [4]
  CC50: 9.38 µM
EKVX
  TGI Concentration/Cell Line: 4.23 µM
MDA-MB-231/ATCC
  TGI Concentration/Cell Line: 7.46 µM
MDA-MB-231/ATCC; Homo sapiens
  LC50: > 100 µM
MDA-MB-231/ATCC; [2]
  GI50: 2.63 µM
786-0; [2]
  GI50: 2 µM
786-0; [4]
  CC50: 9.58 µM
786-0
  TGI Concentration/Cell Line: 4.38 µM
TK-10; [2]
  GI50: 2.03 µM
TK-10
  TGI Concentration/Cell Line: 5.60 µM
CCRF-CEM
  LC50: > 100 µM
CCRF-CEM; [3]
  GI50: 2.71 µM
COLO 205
  TGI Concentration/Cell Line: 4.61 µM
COLO 205; [2]
  GI50: 2.13 µM
RXF393; Homo sapiens, RXF 393
  LC50 (50% lethal concentration): > 100 µM
RXF393
  TGI Concentration/Cell Line: 3.86 µM
